From ChEMBL document CHEMBL5390243, “Catecholamine Derivatives: Natural Occurrence, Structural Diversity, and Biological Activity” (J Nat Prod, 2023) come the findings set out here.

Assay [1] can be described thus: Antioxidant activity assessed as DPPH radical scavenging activity measured after 30 mins. Type of assay: functional.
Assay [2] relates to Trypanosoma cruzi. Briefly: Antitrypanosomal activity against Trypanosoma cruzi trypomastigotes infected in Swiss albino mouse assessed a s reduction in parasitic growth and measured after 24 hrs. Format: functional, organism-based.
Assay [3] has as its system Leishmania amazonensis. Put plainly: Antileishmanial activity against Leishmania amazonensis amastigotes assessed as inhibition of parasitic growth. Format: functional, organism-based.
In assay [4] the target is Beta-2 adrenergic receptor (Homo sapiens) (UniProt P07550). Put plainly: Agonist activity at ARbeta2 (unknown origin) expressed in CHO-K1 cells co-expressing G alpha 15 assessed as inhibition of isoproterenol induced calcium response upto 100 uM incubated for 10 mins by calcium mobilization assay relative to control. Type of assay: functional, cell-based. Further details: scale not given: the % may be the effect or the level left.

Assay [5] concerns the target Alpha-1A adrenergic receptor (Homo sapiens) (UniProt P35348). Briefly: Antagonist activity at ARalpha1A (unknown origin) expressed in HEK293 cells co-expressing Galpha16 assessed as inhibition of Phenylephrine induced calcium response upto 100 uM incubated for 10 mins by calcium mobilization assay. Format: functional, cell-based.
Assay [6] addresses Beta-1 adrenergic receptor (Homo sapiens) (UniProt P08588). Put plainly: Agonist activity at ARbeta1 (unknown origin) expressed in CHO-K1 cells co-expressing G alpha 15 assessed as inhibition of isoproterenol induced calcium response upto 100 uM incubated for 10 mins by calcium mobilization assay relative to control. Type of assay: functional, cell-based. Particulars: filed as agonist.

Assay [7] concerns the target T1, Acetylcholinesterase (Homo sapiens, UniProt P22303). Put plainly: Inhibition of AChE (unknown origin).
Assay [8] deals with T1, Acetylcholinesterase. Put plainly: Inhibition of human recombinant acetylcholinesterase using acetylthiocholine as substrate by spectrophotometric analysis.
In assay [9] the test system is RAW264.7. Put plainly: Anti-inflammatory activity against mouse RAW264.7 cells assessed as inhibition of LPS-induced NO production at 25 uM. Type of assay: functional. Further details: scale not given: the % may be the effect or the level left.
A short description of assay [10]: Antioxidant activity assessed as DPPH radical scavenging activity measured after 30 mins by spectrophotometric analysis. Format: functional.
The target in assay [11] is Alpha-2B adrenergic receptor (Homo sapiens, UniProt P18089). Put plainly: Binding affinity to alpha2B receptor (unknown origin) assessed as inhibition constant.
The test system of assay [12] is Staphylococcus aureus. Put plainly: Antibacterial activity against Staphylococcus aureus 01-159 assessed as bacterial growth inhibition measured after 16 to 18 hrs by Mueller-Hinton broth based microdilution method. Particulars: time 16-18 hrs. Type of assay: functional.
Assay [13] deals with Klebsiella pneumoniae. Briefly: Antimicrobial activity against Klebsiella pneumoniae 02-63 assessed as reduction in microbial cell growth incubated for 16 to 18 hrs by Mueller-Hinton broth based microdilution method. Format: functional. The note with it: time 16-18 hrs.
For assay [14], the system named is RAW264.7. Put plainly: Anti-inflammatory activity against mouse RAW264.7 cells assessed as inhibition of LPS-induced NO production at 10 uM preincubated with compound for 2 hrs followed by LPS stimulation and measured after 24 hrs by Griess reagent based analysis. Format: functional, cell-based.
For assay [15], the system named is Streptococcus pneumoniae. Briefly: Antimicrobial activity against Streptococcus pneumoniae 02-123 assessed as reduction in microbial growth incubated for 16 to 18 hrs by Mueller-Hinton broth based microdilution method. Type of assay: functional. Particulars: time 16-18 hrs.
For assay [16], the system named is Candida albicans. Briefly: Antifungal activity against Candida albicans SC5314 assessed as reduction in fungal growth incubated for 24 hrs by serial dilution method. Type of assay: functional.
In assay [17] the test system is Cryptococcus neoformans. Briefly: Antifungal activity against Cryptococcus neoformans assessed as reduction in fungal cell growth incubated for 24 hrs by microbroth dilution method. Type of assay: functional.
The subject of assay [18] is Candida albicans. Put plainly: Antifungal activity against Candida albicans Y0109 assessed as reduction in microbial growth by micro-broth dilution method. Format: functional.
Assay [19] deals with Influenza A virus. Briefly: Antiviral activity against Influenza A virus H1N1 infected in dog MDCK cells assessed as inhibition in virus-induced cytopathic effect incubated for 48 hrs by SRB assay. Format: functional, organism-based.
Assay [20] addresses Alpha amylase (Homo sapiens) (UniProt P0DUB6). Put plainly: Inhibition of alpha-amylase (unknown origin) at 0.556 ug/ml relative to control. The note with it: dose 0.556 µg/ml.
Assay [21] has as its target Peroxisome proliferator-activated receptor alpha (Homo sapiens) (UniProt Q07869). Put plainly: Activation of PPARalpha (unknown origin) expressed in human HepG2 cells assessed as fold change at 1.47 ug/ml incubated for 24 hrs by luciferase assay. Type of assay: cell-based. Particulars: filed as activator, dose 1.47 µg/ml.
Assay [22] deals with RAW264.7. Put plainly: Anti-inflammatory activity against mouse RAW264.7 cells assessed as inhibition of LPS-induced nitric oxide production at 50 uM preincubated for 2 hrs with compound followed by LPS-stimulation and measured after 24 hrs by Griess reagent based analysis. Type of assay: functional, cell-based.
Assay [23] is described as follows: Antioxidant activity assessed as DPPH radical scavenging activity measured for 45 mins by spectrophotometric analysis. Type of assay: functional.
The nature of assay [24]: Antioxidant activity assessed as DPPH radical scavenging activity incubated for 30 mins by spectrophotometric method. Format: functional.
Assay [25] deals with HeLa. Briefly: Cytotoxicity against human HeLa cells assessed as reduction in cell viability measured after 24 hrs by MTT assay. Type of assay: functional, cell-based.
Assay [26] concerns HepG2. Briefly: Cytotoxicity against human HepG2 cells assessed as reduction in cell viability measured after 72 hrs by MTT assay. Type of assay: functional, cell-based. Particulars: HepG2, 72 h.
Assay [27] has as its system Trypanosoma cruzi. Briefly: Antiprotozoal activity against Trypanosoma cruzi Y strain infected in Swiss albino mouse model assessed as reduction in parasitemia measured after 24 hrs. Type of assay: functional, organism-based.
Assay [28] in a line: Antioxidant activity assessed as ABTS radical scavenging activity incubated for 30 mins by UV-visible spectrphotometric analysis. Type of assay: functional.
Assay [29] relates to Staphylococcus aureus. Briefly: Antibacterial activity against methicillin-resistant Staphylococcus aureus […] assessed as bacterial growth inhibition measured after 24 hrs by CLSI based two-fold serial dilution method. Format: functional.
Assay [30] in a line: Antioxidant activity assessed as DPPH radical scavenging activity measured after 30 mins by UV-visible spectrophotometric analysis. Format: functional.
Assay [31] has as its system Staphylococcus aureus. Put plainly: Antibacterial activity against vancomycin-intermediate Staphylococcus aureus ATCC 700787 assessed as bacterial growth inhibition incubated for 24 hrs by CLSI based two-fold serial dilution method. Type of assay: functional.
In assay [32] the test system is Nakaseomyces glabratus. Briefly: Antifungal activity against Candida glabrata ATCC 15126 assessed as reduction in microbial growth incubated for 24 hrs by CLSI based broth micro-dilution method. Format: functional.
The test system of assay [33] is Staphylococcus aureus. Put plainly: Antibacterial activity against methicillin-sensitive Staphylococcus aureus ATCC 29213 assessed as bacterial growth inhibition measured after 24 hrs by CLSI based two-fold serial dilution method. Format: functional.
A short description of assay [34]: Cytotoxicity against human CHG-5 cells assessed as reduction in cell viability measured after 48 hrs by MTT assay. Type of assay: functional, cell-based. The note with it: CHG-5, 48 h.
Assay [35] in a line: Cytotoxicity against human SHG-44 cells assessed as reduction in cell viability measured after 48 hrs by MTT assay. Type of assay: functional, cell-based. Particulars: SHG-44, 48 h.
Assay [36] deals with HL-60. Briefly: Cytotoxicity against human HL-60 cells assessed as reduction in cell viability measured after 48 hrs by MTT assay. Type of assay: functional, cell-based. Particulars: HL-60, 48 h.
The test system of assay [37] is RAW264.7. Put plainly: Antiinflammatory activity in LPS-induced mouse RAW264.7 cells assessed as reduction in COX-2 level at 100 uM pretreated for 1 hr followed by LPS stimulation and measured after 48 hrs by ELISA relative to control. Type of assay: functional. Further details: scale not given: the % may be the effect or the level left. Particulars: time 49 hrs.

In assay [38] the test system is U-251. Put plainly: Cytotoxicity against human U-251 cells assessed as reduction in cell viability measured after 48 hrs by MTT assay. Type of assay: functional, cell-based. Particulars: U-251, 48 h.
In assay [39] the test system is CCF-STTG1. Put plainly: Cytotoxicity against human CCF-STTGI assessed as reduction in cell viability measured after 48 hrs by MTT assay. Format: functional, cell-based. The note with it: CCF-STTG1, 48 h.
The subject of assay [40] is SMMC-7721. Put plainly: Cytotoxicity against human SMMC-7721 cells assessed as reduction in cell viability incubated for 48 hrs by MTT assay. Type of assay: functional, cell-based. The note with it: SMMC-7721, 48 h.
For assay [41], the system named is SW480. Briefly: Cytotoxicity against human SW480 cells assessed as reduction in cell viability incubated for 48 hrs by MTT assay. The note with it: SW480, 48 h. Type of assay: functional, cell-based.
The subject of assay [42] is RAW264.7. Put plainly: Antiinflammatory activity against LPS-induced mouse RAW264.7 cells assessed as maximal inhibition of TNF-alpha production at 10 to 100 nM incubated for 48 hrs by ELISA analysis relative to control. Further details: scale not given: the % may be the effect or the level left. Format: functional. Particulars: dose 10-100 nM.

≈ marks a conversion by molar mass, not a printed value.

T1 sequence (P22303 whole entry): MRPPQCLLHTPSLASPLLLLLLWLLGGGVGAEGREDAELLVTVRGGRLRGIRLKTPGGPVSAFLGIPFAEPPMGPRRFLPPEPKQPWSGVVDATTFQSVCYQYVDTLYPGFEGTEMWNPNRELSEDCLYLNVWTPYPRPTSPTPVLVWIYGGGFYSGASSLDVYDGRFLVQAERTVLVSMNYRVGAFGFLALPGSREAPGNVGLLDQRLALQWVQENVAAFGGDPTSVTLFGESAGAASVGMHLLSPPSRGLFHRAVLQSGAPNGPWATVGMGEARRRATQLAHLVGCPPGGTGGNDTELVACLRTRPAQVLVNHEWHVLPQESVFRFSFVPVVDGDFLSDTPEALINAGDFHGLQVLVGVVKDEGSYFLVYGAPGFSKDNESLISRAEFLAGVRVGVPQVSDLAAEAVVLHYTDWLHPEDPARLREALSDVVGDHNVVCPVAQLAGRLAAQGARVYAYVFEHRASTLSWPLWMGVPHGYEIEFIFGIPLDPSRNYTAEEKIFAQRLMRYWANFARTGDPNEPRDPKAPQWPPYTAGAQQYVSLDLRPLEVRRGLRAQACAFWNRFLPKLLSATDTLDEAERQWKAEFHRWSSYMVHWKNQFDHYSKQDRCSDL
Chain of Alpha-2B adrenergic receptor (P18089 whole entry): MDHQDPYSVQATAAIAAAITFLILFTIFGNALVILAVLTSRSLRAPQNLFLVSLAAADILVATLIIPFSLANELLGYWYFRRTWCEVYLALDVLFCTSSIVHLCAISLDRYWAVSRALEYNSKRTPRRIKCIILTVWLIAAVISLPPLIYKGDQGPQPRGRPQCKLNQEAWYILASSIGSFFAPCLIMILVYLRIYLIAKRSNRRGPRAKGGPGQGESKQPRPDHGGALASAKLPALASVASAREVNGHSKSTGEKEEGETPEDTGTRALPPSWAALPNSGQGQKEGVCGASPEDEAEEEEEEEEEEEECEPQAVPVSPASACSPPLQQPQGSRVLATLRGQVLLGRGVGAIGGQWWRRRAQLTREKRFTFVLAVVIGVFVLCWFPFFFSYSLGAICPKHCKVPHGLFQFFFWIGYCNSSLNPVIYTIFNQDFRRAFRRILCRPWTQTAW
Chain of Alpha-1A adrenergic receptor (Homo sapiens) (P35348 whole entry): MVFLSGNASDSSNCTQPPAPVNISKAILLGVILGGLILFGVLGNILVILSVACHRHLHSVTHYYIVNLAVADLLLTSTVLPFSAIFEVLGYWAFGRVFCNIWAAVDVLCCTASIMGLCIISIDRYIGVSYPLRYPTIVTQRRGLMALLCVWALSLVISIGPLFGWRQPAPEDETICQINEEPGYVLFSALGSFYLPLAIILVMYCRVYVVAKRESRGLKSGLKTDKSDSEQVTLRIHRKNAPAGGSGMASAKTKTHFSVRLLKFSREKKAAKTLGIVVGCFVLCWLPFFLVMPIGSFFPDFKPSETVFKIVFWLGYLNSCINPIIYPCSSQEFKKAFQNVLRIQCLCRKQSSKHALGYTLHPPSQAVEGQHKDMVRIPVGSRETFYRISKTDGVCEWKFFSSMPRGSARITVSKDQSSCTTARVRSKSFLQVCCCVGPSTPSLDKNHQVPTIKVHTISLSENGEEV
Chain of Peroxisome proliferator-activated receptor alpha (Homo sapiens) (Q07869 whole entry): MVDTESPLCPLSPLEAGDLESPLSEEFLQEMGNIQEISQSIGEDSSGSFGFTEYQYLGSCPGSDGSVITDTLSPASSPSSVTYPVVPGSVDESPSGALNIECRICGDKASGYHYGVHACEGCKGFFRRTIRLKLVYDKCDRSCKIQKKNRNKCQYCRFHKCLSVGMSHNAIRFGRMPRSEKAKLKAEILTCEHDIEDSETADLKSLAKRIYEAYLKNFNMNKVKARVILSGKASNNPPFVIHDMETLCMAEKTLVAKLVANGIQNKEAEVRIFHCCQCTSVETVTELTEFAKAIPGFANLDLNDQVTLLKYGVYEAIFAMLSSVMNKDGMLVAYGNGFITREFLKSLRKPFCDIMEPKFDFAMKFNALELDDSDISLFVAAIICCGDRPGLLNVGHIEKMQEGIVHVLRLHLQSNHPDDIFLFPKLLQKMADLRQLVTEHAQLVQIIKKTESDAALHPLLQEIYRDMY
Chain of Alpha amylase (Homo sapiens) (P0DUB6 whole entry, looked up): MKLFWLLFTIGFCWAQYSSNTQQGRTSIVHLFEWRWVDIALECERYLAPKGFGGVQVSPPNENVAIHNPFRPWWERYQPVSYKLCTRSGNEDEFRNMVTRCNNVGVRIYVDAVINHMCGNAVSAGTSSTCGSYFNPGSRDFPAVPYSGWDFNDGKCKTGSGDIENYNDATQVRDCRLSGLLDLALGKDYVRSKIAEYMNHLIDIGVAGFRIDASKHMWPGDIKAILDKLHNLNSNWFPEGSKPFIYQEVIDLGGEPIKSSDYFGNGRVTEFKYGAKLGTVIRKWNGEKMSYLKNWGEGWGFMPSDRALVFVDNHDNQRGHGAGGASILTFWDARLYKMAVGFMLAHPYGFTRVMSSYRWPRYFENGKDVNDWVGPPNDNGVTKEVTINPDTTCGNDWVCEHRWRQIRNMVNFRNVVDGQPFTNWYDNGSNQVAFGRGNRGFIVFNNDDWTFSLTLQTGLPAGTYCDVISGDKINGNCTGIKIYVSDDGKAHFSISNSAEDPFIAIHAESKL
Chain of Beta-2 adrenergic receptor (Homo sapiens) (P07550 whole entry, looked up): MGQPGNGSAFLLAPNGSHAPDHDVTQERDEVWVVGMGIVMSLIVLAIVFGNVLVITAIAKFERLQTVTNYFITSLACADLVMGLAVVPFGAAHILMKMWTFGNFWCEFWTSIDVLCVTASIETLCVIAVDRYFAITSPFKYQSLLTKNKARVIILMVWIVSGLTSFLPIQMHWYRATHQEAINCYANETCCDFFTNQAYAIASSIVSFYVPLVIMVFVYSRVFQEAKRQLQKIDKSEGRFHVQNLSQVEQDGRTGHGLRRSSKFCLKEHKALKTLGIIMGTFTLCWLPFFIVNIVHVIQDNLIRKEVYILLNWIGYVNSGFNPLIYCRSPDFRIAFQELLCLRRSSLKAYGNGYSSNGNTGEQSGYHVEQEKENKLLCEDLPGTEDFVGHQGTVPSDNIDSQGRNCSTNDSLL
Chain of Beta-1 adrenergic receptor (Homo sapiens) (P08588 whole entry, looked up): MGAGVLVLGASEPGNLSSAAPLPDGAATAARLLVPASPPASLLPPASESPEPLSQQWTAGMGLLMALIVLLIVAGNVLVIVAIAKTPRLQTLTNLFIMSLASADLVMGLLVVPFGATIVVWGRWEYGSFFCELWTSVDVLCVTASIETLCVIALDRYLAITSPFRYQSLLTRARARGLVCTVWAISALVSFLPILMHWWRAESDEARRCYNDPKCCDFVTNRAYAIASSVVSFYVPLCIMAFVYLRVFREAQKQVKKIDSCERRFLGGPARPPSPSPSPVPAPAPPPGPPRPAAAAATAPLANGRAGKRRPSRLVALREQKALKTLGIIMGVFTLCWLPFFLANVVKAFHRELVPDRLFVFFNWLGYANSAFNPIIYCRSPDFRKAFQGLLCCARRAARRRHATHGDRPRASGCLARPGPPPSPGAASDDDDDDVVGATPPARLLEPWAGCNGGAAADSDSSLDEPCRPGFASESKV

With `O=C1NCCc2cc(O)c(O)cc21`, the EC50 in assay [1] came to 9.98 µM.
Regarding `Oc1ccc([C@H]2NCCc3cc(O)c(O)cc32)cc1O`, the IC50 in assay [2] was 0.23 µM; in [3], 0.16 µM.
Regarding `Oc1cc2c(cc1O)C(c1ccco1)=NCC2`, in assay [4], the Activity was 13.4%.
On to `Oc1cc2c(cc1O)[C@@H](Cc1ccccc1)NCC2`, for which the inhibition in [5] amounted to 6.1%; in assay [6], 80.3%.
On to `COc1cc(/C=C/C(=O)NCCc2ccc(O)c(O)c2)ccc1O` [N-TRANS-FERULOYLDOPAMINE], for which the IC50 in [7] worked out at 8.52 µM.
With `O=C1NCCc2c1ccc(O)c2O`, the EC50 in [8] turned out to be 65.7 µM.
Regarding `CC(=O)N/C=C/c1ccc(O)c(O)c1`, the Activity in [9] turned out to be 32.9%.
As to `O=C1c2cc(O)c(O)cc2CCn2cccc21`, the concentration for a half-maximal effect (EC50) in assay [10] amounted to 14.4 µM.
On to `COc1cc(CCN(C)C)c2c(c1OC)SC(CCNC(=N)N)(C1=NCCc3cc(O)c(O)cc31)S2` (centres undefined), for which, in [11], the Ki was 5.9 µM.
Turning to `O=C1CC[C@H]2c3cc(O)c(O)cc3CCN12`, the MIC came out at 32 µg/mL (≈ 146 µM) in [12], 128 µg/mL in assay [13] and 128 µg/mL in assay [15]. For the same molecule, the IC50 stood at 30.3 µM in assay [14] and 56.8 µg/mL (≈ 259 µM) in assay [19]. For the same molecule, the MIC80 in assay [16] is > 64 µg/mL; in assay [17], 32 µg/mL (≈ 146 µM); in assay [18] it was 32 µg/mL. This molecule showed an inhibition in assay [20] of 17%.
As to `CC(C)(Oc1ccc(C2CC2(Cl)Cl)cc1)C(=O)O` (centres undefined), in assay [21], the fold change (FC) stood at 2.2.
As to `O=C(O)[C@@H]1Cc2cc(O)c(O[C@@H]3O[C@H](CO)[C@@H](O)[C@H](O)[C@H]3O)cc2N1C(=O)/C=C/c1ccc(O[C@@H]2O[C@H](CO)[C@@H](O)[C@H](O)[C@H]2O)cc1`, the IC50 in assay [22] turned out to be 67.2 µM. Moreover, in assay [23], the EC50 is 38.3 µM.
Regarding `O=C(O)[C@@H]1Cc2cc(O)c(O[C@@H]3O[C@H](CO[C@@H]4O[C@H](CO)[C@@H](O)[C@H](O)[C@H]4O)[C@@H](O)[C@H](O)[C@H]3O)cc2N1C(=O)/C=C/c1ccc(O)cc1`, the EC50 in [24] stood at 42.9 µM.
Take `Oc1cc2c(cc1O)[C@H](C1=C[C@@]3(O)CC/C=C\CCCCN4CC[C@@H]1[C@]1(C[C@@H]5/C=C\CCCCN5[C@H]13)C4)NCC2`: the IC50 in [25] stood at 5.7 µM.
In the case of `Oc1cc2c(cc1O)[C@@H](C1=C[C@@]3(O)CC/C=C\CCCCN4CC[C@@H]1[C@]1(C[C@@H]5/C=C\CCCCN5[C@H]13)C4)NCC2`, the IC50 in assay [25] is 4.2 µM.
Take `CCCCCC/C=C\CCCCCCCCC/C(NCCc1ccc(O)c(O)c1)=C1/C(=O)CC[C@H](O)C1=O`: the IC50 in assay [26] was found to be 73.9 µM.
On to `OC[C@H]1O[C@@H](NCCc2ccc(O)c(O)c2)[C@H](O)[C@@H](O)[C@@H]1O`, for which, in assay [27], the IC50 was 0.82 µM.
As to `O=C1N[C@@H](Cc2ccc(O)c(O)c2)C(=O)N2CCC[C@@H]12`, the EC50 in assay [28] was determined as 1.71 µg/mL (≈ 6.19 µM); in assay [30], 12.98 µg/mL (≈ 47 µM). The MIC in assay [29] turned out to be 256 µg/mL (≈ 927 µM); in assay [31], 256 µg/mL (≈ 927 µM); in assay [32] it was 128 µg/mL; in assay [33], 256 µg/mL (≈ 927 µM).
Turning to `Oc1cc2c3c(c1O)c1cc4c(cc1c[n+]3CC2)OCO4`, the IC50 in assay [34], in [35], in assay [36], in [38], in assay [39] and in [40] was 9.4 µM in each case. Further, the IC50 in assay [41] came to 9.4 µM. Also, the Activity in assay [37] worked out at 96.5%.
For the molecule `COc1cc(CCN(C)C)c2c(c1O)SC(CCNC(=N)N)(C1=NCCc3cc(O)c(O)cc31)S2` (centres undefined), the Ki in assay [11] turned out to be 5.9 µM.
Turning to `O=C(/C=C/c1ccc(O)c(O)c1)N[C@@H](Cc1ccc(O)c(O)c1)C(=O)O`, in [42], the Activity is on record as 80%.
